One experiment deals with DGKα (Homo sapiens (Human), UniProt P23743). Description: In vitro DGKα inhibition assay (ADP-Glo). The experiment is classed as biochemical. Particulars: His-tagged human recombinant DGKα 0.1 nM, 50 μM ATP, 20 μM DLG. On the procedure: (§1) The DGKα and DGKζ biochemical reactions were performed using His-tagged human recombinant enzymes (Signal Chem, DGKα, #D21-10BH; DGKζ, #D30-10H)) and DLG (Dilauroyl-sn-glycerol) lipid substrate (Signal Chem, #D430-59). ADP-Glo assay was performed using ADP-Glo™ kinase Assay kit (Promega, #V9104). The reactions were carried out in assay buffer containing 40 mM Tris, pH 7.5, 0.1% CHAPS, 0.1% Prionex, 40 mM NaCl, 5 mM MgCl2, 1 mM CaCl2, and 1 mM DTT. DGKα reactions contained 0.1 nM DGKα, 50 μM ATP, and 20 μM DLG. And DGKζ reactions contained 0.4 nM DGKζ, 30 μM ATP, and 20 μM DLG.
(§2) For compound inhibition studies, 40 nL test compound in DMSO was added to wells of white polystyrene plates in 384-well (Greiner, #784075) or 1536-well format (Greiner, #782075). Compounds were added with top concentration of 2 mM with 11 point, 3-fold dilution series. Enzyme solution (contains 2×DGK enzyme concentration in 1× assay buffer) was added to the plate in 2 μL/well volume, followed by 2 μL/well of substrate solution (contains 2×concentration of ATP and DLG substrate in 1× assay buffer). Plates were then centrifuged for 1 min at 1200 RPM and sealed or lidded. For 4 μL reaction volume, test compounds were therefore diluted 100× to final top concentration of 20 μM. After 90 minute incubation, reactions were quenched by addition of 2 μL/well Promega ADP-Glo Reagent, followed by centrifugation and lidding. After 60 min incubation, 2 μL/well Promega Kinase Detection Reagent was added, plates centrifuged, and incubated for 30 min. Plates were then read using Luminescence method on BMG PHERAstar FSX plate reader. Percent inhibition was calculated and IC50s were determined using 4-parameter fit in Genedata Screener. Labcyte Echo acoustic dispenser was used for compound addition, and Formulatrix Tempest liquid handler was used for all reagent dispenses.
(In ADP-Glo the light output rises with the ADP produced.)

The next experiment has as its target DGKζ (Homo sapiens (Human), UniProt Q13574). In words: In vitro DGKζ inhibition assay (ADP-Glo). Type of experiment: biochemical. The note with it: His-tagged human recombinant DGKζ 0.4 nM, 30 μM ATP, 20 μM DLG. The procedure:
as §1, §2

Chain of DGKζ (Q13574 whole entry): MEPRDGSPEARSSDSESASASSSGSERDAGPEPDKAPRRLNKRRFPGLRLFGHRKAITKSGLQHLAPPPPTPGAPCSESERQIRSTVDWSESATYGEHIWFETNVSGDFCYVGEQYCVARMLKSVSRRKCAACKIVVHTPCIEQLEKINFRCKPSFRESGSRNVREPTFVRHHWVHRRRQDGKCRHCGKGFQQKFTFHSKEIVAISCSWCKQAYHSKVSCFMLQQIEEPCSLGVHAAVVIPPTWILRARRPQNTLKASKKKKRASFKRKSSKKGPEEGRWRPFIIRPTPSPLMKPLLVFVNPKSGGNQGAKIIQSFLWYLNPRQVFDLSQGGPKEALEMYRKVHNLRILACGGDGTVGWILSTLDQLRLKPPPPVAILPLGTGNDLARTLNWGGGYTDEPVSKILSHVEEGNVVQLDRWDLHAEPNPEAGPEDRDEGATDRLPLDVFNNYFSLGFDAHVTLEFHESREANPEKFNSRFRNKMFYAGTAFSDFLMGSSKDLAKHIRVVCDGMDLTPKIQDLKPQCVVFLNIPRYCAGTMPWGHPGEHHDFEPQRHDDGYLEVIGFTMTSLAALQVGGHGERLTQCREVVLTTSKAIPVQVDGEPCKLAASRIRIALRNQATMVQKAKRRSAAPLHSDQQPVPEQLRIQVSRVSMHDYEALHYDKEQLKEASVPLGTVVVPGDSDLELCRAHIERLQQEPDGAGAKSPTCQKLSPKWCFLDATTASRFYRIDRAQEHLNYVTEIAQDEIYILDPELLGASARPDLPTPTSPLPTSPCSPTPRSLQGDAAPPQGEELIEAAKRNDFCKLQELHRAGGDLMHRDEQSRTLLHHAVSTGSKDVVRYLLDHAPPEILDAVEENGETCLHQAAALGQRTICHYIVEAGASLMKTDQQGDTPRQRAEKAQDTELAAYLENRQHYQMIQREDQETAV
Chain of DGKα (P23743 whole entry): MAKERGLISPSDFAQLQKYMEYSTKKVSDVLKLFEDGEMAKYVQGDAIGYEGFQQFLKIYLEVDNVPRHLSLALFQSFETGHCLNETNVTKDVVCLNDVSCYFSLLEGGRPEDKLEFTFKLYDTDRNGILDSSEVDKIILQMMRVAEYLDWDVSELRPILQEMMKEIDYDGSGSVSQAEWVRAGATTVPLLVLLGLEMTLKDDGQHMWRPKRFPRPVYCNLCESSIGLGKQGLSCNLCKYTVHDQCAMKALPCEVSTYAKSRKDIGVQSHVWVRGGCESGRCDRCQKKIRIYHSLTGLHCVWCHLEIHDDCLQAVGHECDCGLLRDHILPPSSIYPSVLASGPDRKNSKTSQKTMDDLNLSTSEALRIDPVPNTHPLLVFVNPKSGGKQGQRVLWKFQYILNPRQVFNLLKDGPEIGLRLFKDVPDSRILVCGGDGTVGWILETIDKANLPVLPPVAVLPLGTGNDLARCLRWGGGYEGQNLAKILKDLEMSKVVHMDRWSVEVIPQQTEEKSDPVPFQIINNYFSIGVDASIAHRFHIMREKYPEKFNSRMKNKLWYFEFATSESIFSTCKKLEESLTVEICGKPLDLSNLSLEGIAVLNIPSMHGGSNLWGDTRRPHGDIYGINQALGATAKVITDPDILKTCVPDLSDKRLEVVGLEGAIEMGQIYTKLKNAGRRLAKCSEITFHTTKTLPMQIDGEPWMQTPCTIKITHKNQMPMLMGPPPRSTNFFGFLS

`CN1C(=O)CC2CN(C(c3ccc(F)cc3)c3ccc(F)cc3)CCN2c2c1c(=O)n(C)c1ccc(C#N)nc21` (single isomer, unassigned) [Example 1, 11-(Bis(4-fluorophenyl)methyl)-5,7-dimethyl-6,8-dioxo-5,6,7,8,9,9a,10,11,12,13-decahydropyrazino[1′,2′: 4,5][1,4]diazepino[2,3-c][1,5]naphthyridine-2-carbonitrile]: the IC50 on DGKα was ≤ 40 nM; at DGKζ, 200 to 2000 nM.
For `CN1C(=O)CC2CN(C(c3ccc(F)cc3)c3ccc(F)cc3)CCN2c2c1c(=O)n(C)c1ccc(C#N)nc21` (single isomer, unassigned) [Example 2, 11-(Bis(4-fluorophenyl)methyl)-5,7-dimethyl-6,8-dioxo-5,6,7,8,9,9a,10,11,12,13-decahydropyrazino[1′,2′: 4,5][1,4]diazepino[2,3-c][1,5]naphthyridine-2-carbonitrile], the IC50 on DGKα is 40 to 200 nM; on DGKζ, ≤ 40 nM.
For `Cn1c(=O)c2c(c3nc(C#N)ccc31)N1CCN(C(c3ccc(F)cc3)c3ccc(F)cc3)C[C@@H]1COC2=O` [Example 3, (R)-11-(Bis(4-fluorophenyl)methyl)-5-methyl-6,7-dioxo-5,7,9,9a,10,11,12,13-octahydro-6H-pyrazino[2′,1′:3,4][1,4]oxazepino[6,5-c][1,5]naphthyridine-2-carbonitrile] the same measures were ≤ 40 nM and ≤ 40 nM.
Consider `Cn1c(=O)c2c(c3nc(CC#N)ccc31)N1CCN(C(c3ccc(F)cc3)c3ccc(F)cc3)C[C@@H]1COC2=O` [Example 4, (R)-2-(11-(Bis(4-fluorophenyl)methyl)-5-methyl-6,7-dioxo-5,7,9,9a,10,11,12,13-octahydro-6H-pyrazino[2′,1′:3,4][1,4]oxazepino[6,5-c][1,5]naphthyridin-2-yl)acetonitrile], for which the IC50 on DGKα and on DGKζ was ≤ 40 nM throughout.
`Cn1c(=O)c2c(c3nc(CC#N)cnc31)N1CCN(C(c3ccc(F)cc3)c3ccc(F)cc3)C[C@@H]1COC2=O` [Example 5, (R)-2-(11-(Bis(4-fluorophenyl)methyl)-5-methyl-6,7-dioxo-5,7,9,9a,10,11,12,13-octahydro-6H-pyrazino[2,1-c]pyrazino[2′,3′: 5,6]pyrido[4,3-e][1,4]oxazepin-2-yl)acetonitrile]: the IC50 on DGKα and on DGKζ was 40 to 200 nM each time.
Turning to `Cn1c(=O)c2c(c3nc(C#N)ccc31)N1CCN(C(c3ccc(F)cc3)c3ccc(F)cc3)C[C@H]1COC2=O` [Example 6, (S)-11-(Bis(4-fluorophenyl)methyl)-5-methyl-6,7-dioxo-5,7,9,9a,10,11,12,13-octahydro-6H-pyrazino[2′,1′:3,4][1,4]oxazepino[6,5-c][1,5]naphthyridine-2-carbonitrile], the IC50 on DGKα and on DGKζ was ≤ 40 nM throughout.
As for `C[C@@H]1CN2c3c(c(=O)n(C)c4ccc(C#N)nc34)C(=O)OC[C@H]2CN1C(c1ccc(F)cc1)c1ccc(F)cc1` [Example 7, (9aR,12R)-11-(Bis(4-fluorophenyl)methyl)-5,12-dimethyl-6,7-dioxo-5,7,9,9a,10,11,12,13-octahydro-6H-pyrazino[2′,1′:3,4][1,4]oxazepino[6,5-c][1,5]naphthyridine-2-carbonitrile], the IC50 was ≤ 40 nM on DGKα and 200 to 2000 nM on DGKζ.
With `Cn1c(=O)c2c(c3cc(CC#N)ccc31)N1CCN(C(c3ccc(F)cc3)c3ccc(F)cc3)C[C@@H]1COC2=O` [Example 8, (R)-2-(3-(Bis(4-fluorophenyl)methyl)-9-methyl-7,8-dioxo-1,2,3,4,4a,5,8,9-octahydro-7H-pyrazino[2′,1′:3,4][1,4]oxazepino[6,5-c]quinolin-12-yl)acetonitrile], the IC50 at DGKζ is 40 to 200 nM.
`Cn1c(=O)c2c(c3ncc(C#N)cc31)N1CCN(C(c3ccc(F)cc3)c3ccc(F)cc3)C[C@@H]1COC2=O` [Example 9, (R)-11-(Bis(4-fluorophenyl)methyl)-5-methyl-6,7-dioxo-5,7,9,9a,10,11,12,13-octahydro-6H-pyrazino[2′,1′:3,4][1,4]oxazepino[6,5-c][1,5]naphthyridine-3-carbonitrile]: the IC50 was ≤ 40 nM on DGKα and > 2000 nM on DGKζ.
`Cn1c(=O)c2c(c3ncc(CC#N)cc31)N1CCN(C(c3ccc(F)cc3)c3ccc(F)cc3)C[C@@H]1COC2=O` [Example 10, (R)-2-(11-(Bis(4-fluorophenyl)methyl)-5-methyl-6,7-dioxo-5,7,9,9a,10,11,12,13-octahydro-6H-pyrazino[2′,1′:3,4][1,4]oxazepino[6,5-c][1,5]naphthyridin-3-yl)acetonitrile]: at DGKζ, the IC50 is > 2000 nM.

What is called IC50 is the midpoint of a concentration-inhibition curve.

(Values after patent US20240025900A1, “TETRACYCLIC COMPOUNDS AS DGK INHIBITORS” (Incyte Corporation, priority 2022, published 2024).)
